Tested on: M. tuberculosis
Experiment: Extracellular activity against M. tuberculosis in cholesterol media (Alamar Blue reduction assay)
Assay type: cell-based, Mycobacterium tuberculosis
Conditions: Mycobacterium tuberculosis, 240 h, 7H12-Cholesterol media, 10 days; read-out: Cholesterol broth: alamar blue--EC50

Row | SMILES | EC50
1 | Cc1nonc1CC(=O)N1CC2CC(C1)C2c1nc(-c2ccc(F)c(F)c2)no1 (stereo not shown) [Compound 214, 1-(6-(3-(3,4-difluorophenyl)-1,2,4-oxadiazol-5-yl)-3-azabicyclo[3.1.1]heptan-3-yl)-2-(4-methyl-1,2,5-oxadiazol-3-yl)ethan-1-one] | 5050 nM
2 | Cc1nonc1CC(=O)N1CC2CC(C1)C2c1nc(-c2ccc(F)cc2)no1 (stereo not shown) [Compound 215, 1-(6-(3-(4-fluorophenyl)-1,2,4-oxadiazol-5-yl)-3-azabicyclo[3.1.1]heptan-3-yl)-2-(4-methyl-1,2,5-oxadiazol-3-yl)ethan-1-one] | 132 nM
3 | Cn1ncnc1CC(=O)N1CC2CC(C1)C2c1nc(-c2ccc(Cl)c(Cl)c2)no1 (stereo not shown) [Compound 216, 1-(6-(3-(3,4-dichlorophenyl)-1,2,4-oxadiazol-5-yl)-3-azabicyclo[3.1.1]heptan-3-yl)-2-(1-methyl-1H-1,2,4-triazol-5-yl)ethan-1-one] | > 10000 nM
4 | Cn1ncnc1CC(=O)N1C[C@H]2C[C@@H](C1)[C@@H]2c1nc(-c2ccc(Cl)c(Cl)c2)no1 [Compound 217, 1-((1R,5S,6r)-6-(3-(3,4-dichlorophenyl)-1,2,4-oxadiazol-5-yl)-3-azabicyclo[3.1.1]heptan-3-yl)-2-(1-methyl-1H-1,2,4-triazol-5-yl)ethan-1-one] | 100 nM
5 | Cn1ncnc1CC(=O)N1C[C@H]2C[C@@H](C1)[C@H]2c1nc(-c2ccc(Cl)c(Cl)c2)no1 [Compound 218, 1-((1R,5S,6s)-6-(3-(3,4-dichlorophenyl)-1,2,4-oxadiazol-5-yl)-3-azabicyclo[3.1.1]heptan-3-yl)-2-(1-methyl-1H-1,2,4-triazol-5-yl)ethan-1-one] | > 10000 nM
6 | Cn1ncnc1CC(=O)N1C[C@H]2C[C@@H](C1)[C@H]2c1nc(-c2ccc(Cl)cc2)no1 [Compound 219, 1-((1R,5S,6s)-6-(3-(4-chlorophenyl)-1,2,4-oxadiazol-5-yl)-3-azabicyclo[3.1.1]heptan-3-yl)-2-(1-methyl-1H-1,2,4-triazol-5-yl)ethan-1-one] | > 10000 nM
7 | Cn1ncnc1CC(=O)N1C[C@H]2C[C@@H](C1)[C@@H]2c1nc(-c2ccc(Cl)cc2)no1 [Compound 220, 1-((1R,5S,6r)-6-(3-(4-chlorophenyl)-1,2,4-oxadiazol-5-yl)-3-azabicyclo[3.1.1]heptan-3-yl)-2-(1-methyl-1H-1,2,4-triazol-5-yl)ethan-1-one] | 140 nM
8 | Cn1ncnc1CC(=O)N1C[C@H]2C[C@@H](C1)[C@@H]2c1nc(-c2ccc(Cl)c(F)c2)no1 [Compound 221, 1-((1R,5S,6r)-6-(3-(4-chloro-3-fluorophenyl)-1,2,4-oxadiazol-5-yl)-3-azabicyclo[3.1.1]heptan-3-yl)-2-(1-methyl-1H-1,2,4-triazol-5-yl)ethan-1-one] | 100 nM
9 | Cn1ncnc1CC(=O)N1C[C@H]2C[C@@H](C1)[C@H]2c1nc(-c2ccc(Cl)c(F)c2)no1 [Compound 222, 1-((1R,5S,6s)-6-(3-(4-chloro-3-fluorophenyl)-1,2,4-oxadiazol-5-yl)-3-azabicyclo[3.1.1]heptan-3-yl)-2-(1-methyl-1H-1,2,4-triazol-5-yl)ethan-1-one] | > 10000 nM
10 | Cn1ncnc1CC(=O)N1C[C@H]2C[C@@H](C1)[C@@H]2c1nc(-c2ccc(Cl)cc2F)no1 [Compound 223, 1-((1R,5S,6r)-6-(3-(4-chloro-2-fluorophenyl)-1,2,4-oxadiazol-5-yl)-3-azabicyclo[3.1.1]heptan-3-yl)-2-(1-methyl-1H-1,2,4-triazol-5-yl)ethan-1-one] | 290 nM
11 | Cn1ncnc1CC(=O)N1C[C@H]2C[C@@H](C1)[C@H]2c1nc(-c2ccc(Cl)cc2F)no1 [Compound 224, 1-((1R,5S,6s)-6-(3-(4-chloro-2-fluorophenyl)-1,2,4-oxadiazol-5-yl)-3-azabicyclo[3.1.1]heptan-3-yl)-2-(1-methyl-1H-1,2,4-triazol-5-yl)ethan-1-one] | > 10000 nM
12 | Cc1noc(CC(=O)N2CCC3(CC2)CC(c2nc(C4CCCCC4)no2)C3)n1 [Compound 225, 1-(2-(3-cyclohexyl-1,2,4-oxadiazol-5-yl)-7-azaspiro[3.5]nonan-7-yl)-2-(3-methyl-1,2,4-oxadiazol-5-yl)ethan-1-one] | > 10000 nM
13 | Cc1noc(CC(=O)N2CCC3(CC2)CC(c2nc(-c4ccc(Cl)c(Cl)c4)no2)C3)n1 [Compound 226, 1-(2-(3-(3,4-dichlorophenyl)-1,2,4-oxadiazol-5-yl)-7-azaspiro[3.5]nonan-7-yl)-2-(3-methyl-1,2,4-oxadiazol-5-yl)ethan-1-one] | 109 nM
14 | Cc1noc(CC(=O)N2CCC3(CC2)CC(c2nc(C4CCC(F)(F)CC4)no2)C3)n1 [Compound 227, 1-(2-(3-(4,4-difluorocyclohexyl)-1,2,4-oxadiazol-5-yl)-7-azaspiro[3.5]nonan-7-yl)-2-(3-methyl-1,2,4-oxadiazol-5-yl)ethan-1-one] | > 10000 nM
15 | Cc1noc(CC(=O)N2CCC3(CC2)CC(c2nc(-c4ccc(F)c(F)c4)no2)C3)n1 [Compound 228, 1-(2-(3-(3,4-difluorophenyl)-1,2,4-oxadiazol-5-yl)-7-azaspiro[3.5]nonan-7-yl)-2-(3-methyl-1,2,4-oxadiazol-5-yl)ethan-1-one] | 294 nM
16 | Cc1nonc1CC(=O)N1CCC2(CC1)CC(c1nc(C3CCCCC3)no1)C2 [Compound 229, 1-(2-(3-cyclohexyl-1,2,4-oxadiazol-5-yl)-7-azaspiro[3.5]nonan-7-yl)-2-(4-methyl-1,2,5-oxadiazol-3-yl)ethan-1-one] | 3060 nM

Row | SMILES | EC50
17 | Cc1nonc1CC(=O)N1CCC2(CC1)CC(c1nc(-c3ccc(Cl)c(Cl)c3)no1)C2 [Compound 230, 1-(2-(3-(3,4-dichlorophenyl)-1,2,4-oxadiazol-5-yl)-7-azaspiro[3.5]nonan-7-yl)-2-(4-methyl-1,2,5-oxadiazol-3-yl)ethan-1-one] | 176 nM
18 | Cc1nonc1CC(=O)N1CCC2(CC1)CC(c1nc(C3CCC(F)(F)CC3)no1)C2 [Compound 231, 1-(2-(3-(4,4-difluorocyclohexyl)-1,2,4-oxadiazol-5-yl)-7-azaspiro[3.5]nonan-7-yl)-2-(4-methyl-1,2,5-oxadiazol-3-yl)ethan-1-one] | > 10000 nM
19 | Cc1nonc1CC(=O)N1CCC2(CC1)CC(c1nc(-c3ccc(F)c(F)c3)no1)C2 [Compound 232, 1-(2-(3-(3,4-difluorophenyl)-1,2,4-oxadiazol-5-yl)-7-azaspiro[3.5]nonan-7-yl)-2-(4-methyl-1,2,5-oxadiazol-3-yl)ethan-1-one] | 257 nM
20 | Cc1nonc1CC(=O)N1CCC2(CC1)CC(c1nc(-c3ccc(F)cc3)no1)C2 [Compound 233, 1-(2-(3-(4-fluorophenyl)-1,2,4-oxadiazol-5-yl)-7-azaspiro[3.5]nonan-7-yl)-2-(4-methyl-1,2,5-oxadiazol-3-yl)ethan-1-one] | 450 nM
21 | Cc1noc(CC(=O)N2CCN(c3nc(-c4ccc(Cl)c(Cl)c4)no3)CC2)n1 [Compound 234, 1-(4-(3-(3,4-dichlorophenyl)-1,2,4-oxadiazol-5-yl)piperazin-1-yl)-2-(3-methyl-1,2,4-oxadiazol-5-yl)ethan-1-one] | > 10000 nM
22 | Cc1nonc1CC(=O)N1CCN(c2nc(-c3ccc(Cl)c(Cl)c3)no2)CC1 [Compound 235, 1-(4-(3-(3,4-dichlorophenyl)-1,2,4-oxadiazol-5-yl)piperazin-1-yl)-2-(4-methyl-1,2,5-oxadiazol-3-yl)ethan-1-one] | 270 nM
23 | Cc1nonc1CC(=O)N1CCN(c2nc(-c3ccc(F)cc3)no2)CC1 [Compound 236, 1-(4-(3-(4-fluorophenyl)-1,2,4-oxadiazol-5-yl)piperazin-1-yl)-2-(4-methyl-1,2,5-oxadiazol-3-yl)ethan-1-one] | 649 nM
24 | Cc1nonc1CC(=O)N1CCC2(CC1)CC2c1nc(-c2ccc(F)cc2)no1 (stereo not shown) [Compound 237, 1-(1-(3-(4-fluorophenyl)-1,2,4-oxadiazol-5-yl)-6-azaspiro[2.5]octan-6-yl)-2-(4-methyl-1,2,5-oxadiazol-3-yl)ethan-1-one] | > 10000 nM
25 | Cc1noc(CC(=O)N2CCC3(CC2)CC3c2nc(-c3ccc(F)cc3)no2)n1 (stereo not shown) [Compound 238, 1-(1-(3-(4-fluorophenyl)-1,2,4-oxadiazol-5-yl)-6-azaspiro[2.5]octan-6-yl)-2-(3-methyl-1,2,4-oxadiazol-5-yl)ethan-1-one] | > 10000 nM
26 | Cc1noc(CC(=O)N2CCC3(CCC3c3nc(-c4ccc(Cl)c(Cl)c4)no3)CC2)n1 (stereo not shown) [Compound 239, 1-(1-(3-(3,4-dichlorophenyl)-1,2,4-oxadiazol-5-yl)-7-azaspiro[3.5]nonan-7-yl)-2-(3-methyl-1,2,4-oxadiazol-5-yl)ethan-1-one] | > 25000 nM
27 | Cc1noc(CC(=O)N2CCC3(CCC3c3nc(-c4ccc(F)cc4)no3)CC2)n1 (stereo not shown) [Compound 240, 1-(1-(3-(4-fluorophenyl)-1,2,4-oxadiazol-5-yl)-7-azaspiro[3.5]nonan-7-yl)-2-(3-methyl-1,2,4-oxadiazol-5-yl)ethan-1-one] | > 10000 nM
28 | Cc1nonc1CC(=O)N1CCC2(CCC2c2nc(-c3ccc(F)cc3)no2)CC1 (stereo not shown) [Compound 241, 1-(1-(3-(4-fluorophenyl)-1,2,4-oxadiazol-5-yl)-7-azaspiro[3.5]nonan-7-yl)-2-(4-methyl-1,2,5-oxadiazol-3-yl)ethan-1-one] | > 10000 nM
29 | Cc1noc(CC(=O)N2CC3CC(C2)C3n2nnc(-c3ccc(F)cc3)n2)n1 (stereo not shown) [Compound 242, 1-(6-(5-(4-fluorophenyl)-2H-tetrazol-2-yl)-3-azabicyclo[3.1.1]heptan-3-yl)-2-(3-methyl-1,2,4-oxadiazol-5-yl)ethan-1-one] | > 25000 nM
30 | Cc1nonc1CC(=O)N1CC2CC(C1)C2n1nnc(-c2ccc(F)cc2)n1 (stereo not shown) [Compound 243, 1-(6-(5-(4-fluorophenyl)-2H-tetrazol-2-yl)-3-azabicyclo[3.1.1]heptan-3-yl)-2-(4-methyl-1,2,5-oxadiazol-3-yl)ethan-1-one] | > 10000 nM
31 | Cc1nonc1CC(=O)N1CCCC(n2cc(C(=O)N3CCOCC3)nn2)C1 (stereo not shown) [Compound 244, 2-(4-methyl-1,2,5-oxadiazol-3-yl)-1-(3-(4-(morpholine-4-carbonyl)-1H-1,2,3-triazol-1-yl)piperidin-1-yl)ethan-1-one] | > 10000 nM

— patent US20260048047A1, “SMALL-MOLECULE ACTIVATORS OF MYCOBACTERIUM TUBERCULOSIS ADENYLYL CYCLASE” (priority 2022, published 2026)
